Source: PubChem BioAssay (NCI)
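The compound was tested at five concentrations on cells cultured in 96-well plates, with a 48-hour exposure period. Abbreviation: GI50, concentration required for 50% inhibition of growth. At the TGI there is no net growth.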

Key:
Test in all cases: growth of human tumour cells (NCI), 48 h
[1] = test system: NCI/ADR-RES ovarian
[2] = test system: HL-60(TB) leukemia
[3] = test system: K-562 leukemia
[4] = test system: A549 NSCLC
[5] = test system: SW-620 colon
[6] = test system: OVCAR-5 ovarian
[7] = test system: SN12C renal
[8] = test system: NCI-H460 lung
[9] = test system: M14 melanoma
[10] = test system: HCC-2998 colon

For `COC(=O)c1cc2c(s1)-c1nccc3c1c(nc1ccccc13)C2=O`, the GI50 [1] was greater than 100 µM, the TGI [1] was greater than 100 µM and the GI50 [2] was 12.3 µM. The TGI [2] was greater than 100 µM, the GI50 [3] was greater than 100 µM and the TGI [3] was greater than 100 µM. The GI50 [4] was greater than 100 µM, the TGI [4] was greater than 100 µM and the GI50 [5] was 61.7 µM. The TGI [5] was greater than 100 µM, the GI50 [6] was greater than 100 µM and the TGI [6] was greater than 100 µM. It also gave a GI50 [7] greater than 100 µM, a TGI [7] greater than 100 µM and a GI50 [8] greater than 100 µM. It also gave a TGI [8] greater than 100 µM, a GI50 [9] of 97.7 µM and a TGI [9] greater than 100 µM.

With `C[Si](C)(C)/C(I)=C/CO` the TGI [3] was 41.4 µM, the TGI [4] was 76.3 µM and the TGI [5] was 47.8 µM. For the same molecule, the TGI [6] was 69 µM, the TGI [7] was 64.7 µM and the TGI [8] was 46.3 µM. The TGI [9] was greater than 100 µM.

`O=C(O)c1ccc(C(=O)O)c2c(C(=O)O)ccc(C(=O)O)c12` gave a TGI [1] greater than 100 µM, a TGI [3] greater than 100 µM and a TGI [4] greater than 100 µM. It also gave a TGI [5] greater than 100 µM, a TGI [6] greater than 100 µM and a TGI [7] greater than 100 µM. For the same molecule, the TGI [8] was greater than 100 µM and the TGI [9] was greater than 100 µM.

Work on `CS/C(=C(\S)c1ccccc1)c1ccccc1` yielded a TGI [2] greater than 100 µM, a TGI [3] greater than 100 µM and a TGI [10] greater than 100 µM. The TGI [4] was greater than 100 µM, the TGI [5] was greater than 100 µM and the TGI [6] was greater than 100 µM. It also gave a TGI [7] greater than 100 µM, a TGI [8] greater than 100 µM and a TGI [9] greater than 100 µM.

With `CN(C)CCSc1cc(-c2ccccc2)c2ccccc2n1` the TGI [1] was 31.5 µM, the TGI [2] was greater than 100 µM and the TGI [3] was 23.5 µM. For the same molecule, the TGI [4] was 28.5 µM, the TGI [5] was 23.2 µM and the TGI [6] was 26.2 µM. The TGI [7] was 32.2 µM and the TGI [9] was 7.01 µM.

`BrCc1cccc(C[P+](c2ccccc2)(c2ccccc2)c2ccccc2)c1` was tested, and the GI50 [1] was greater than 100 µM, the TGI [1] was greater than 100 µM and the GI50 [2] was 13.9 µM. The TGI [2] was 49.9 µM, the GI50 [3] was 4.26 µM and the TGI [3] was greater than 100 µM. It also gave a GI50 [10] of 21.8 µM, a TGI [10] greater than 100 µM and a GI50 [4] of 42.3 µM. The TGI [4] was greater than 100 µM, the GI50 [5] was 22.3 µM and the TGI [5] was greater than 100 µM. For the same molecule, the GI50 [6] was 30.2 µM, the TGI [6] was greater than 100 µM and the GI50 [7] was 18.4 µM. For the same molecule, the TGI [7] was greater than 100 µM, the GI50 [8] was 25 µM and the TGI [8] was greater than 100 µM.

For `CC(C)=CCc1cc2c(cc1O)OC[C@H]1c3cc4c(cc3O[C@@H]21)OCO4`, the TGI [1] was 76.1 µM, the TGI [2] was 71.9 µM and the TGI [3] was greater than 100 µM. The TGI [4] was greater than 100 µM, the TGI [5] was greater than 100 µM and the TGI [6] was greater than 100 µM. It also gave a TGI [8] of 44.5 µM and a TGI [9] greater than 100 µM.

`Cc1ccc(S(=O)OCc2c(C)c(C)c(COS(=O)c3ccc(C)cc3)c(C)c2C)cc1` (stereo not given) showed a TGI [2] greater than 100 µM, a TGI [3] greater than 100 µM and a TGI [10] greater than 100 µM. For the same molecule, the TGI [4] was greater than 100 µM, the TGI [5] was greater than 100 µM and the TGI [6] was greater than 100 µM. For the same molecule, the TGI [7] was greater than 100 µM, the TGI [8] was greater than 100 µM and the TGI [9] was greater than 100 µM.

`Cc1nc2cc(Nc3nc(Nc4ccc(F)cc4)nc(-c4cccs4)n3)ccc2n1Cc1ccccc1` was tested, and the GI50 [1] was 3.66 µM, the TGI [1] was 32.1 µM and the GI50 [2] was 2.46 µM. For the same molecule, the TGI [2] was 6.5 µM, the GI50 [3] was 3.07 µM and the TGI [3] was 20.6 µM. The GI50 [4] was 2.98 µM, the TGI [4] was 15.1 µM and the GI50 [5] was 4.02 µM. For the same molecule, the TGI [5] was 38.8 µM, the GI50 [6] was 9.62 µM and the TGI [6] was 27.3 µM. The GI50 [7] was 5.73 µM, the TGI [7] was 58.1 µM and the GI50 [8] was 3.78 µM. For the same molecule, the TGI [8] was 20.4 µM, the GI50 [9] was 5.42 µM and the TGI [9] was 24.6 µM.

For `O=C1CCC(=O)c2c1c(O)c1ccncc1c2O`, the TGI [2] was 26.4 µM, the TGI [3] was 44 µM and the TGI [10] was 29.6 µM. For the same molecule, the TGI [4] was 43.5 µM, the TGI [5] was 35.8 µM and the TGI [6] was 38.2 µM. For the same molecule, the TGI [7] was 31.6 µM, the TGI [8] was 30.7 µM and the TGI [9] was 28.9 µM.

Work on `CCOC(=O)c1ccc(N=Nc2cc(C(=O)OCC)ccc2O)cc1` yielded a TGI [2] greater than 100 µM, a TGI [3] greater than 100 µM and a TGI [4] greater than 100 µM. The TGI [5] was greater than 100 µM, the TGI [7] was greater than 100 µM and the TGI [8] was greater than 100 µM. It also gave a TGI [9] greater than 100 µM.

`C[Si](C)(C)/C(Br)=C\CCN1C(=O)CCC1=O` showed a TGI [2] greater than 100 µM, a TGI [3] greater than 100 µM and a TGI [10] greater than 100 µM. For the same molecule, the TGI [4] was greater than 100 µM, the TGI [5] was greater than 100 µM and the TGI [6] was greater than 100 µM. It also gave a TGI [7] greater than 100 µM, a TGI [8] greater than 100 µM and a TGI [9] greater than 100 µM.

Work on `COC(=O)c1s/c(=N\C(=S)N(C)C)n(-c2ccc(Cl)cc2)c1C(=O)OC` yielded a TGI [2] greater than 100 µM, a TGI [3] greater than 100 µM and a TGI [10] greater than 100 µM. It also gave a TGI [4] greater than 100 µM, a TGI [5] greater than 100 µM and a TGI [6] greater than 100 µM. It also gave a TGI [7] greater than 100 µM, a TGI [8] greater than 100 µM and a TGI [9] greater than 100 µM.

Molecule `O=C(NNc1ccccc1)C(=O)NNc1ccccc1` has a GI50 [1] greater than 100 µM, a TGI [1] greater than 100 µM and a GI50 [2] of 0.627 µM. The TGI [2] was 5.28 µM, the GI50 [3] was 0.396 µM and the TGI [3] was greater than 100 µM. The GI50 [10] was 2.96 µM, the TGI [10] was greater than 100 µM and the GI50 [4] was 3.53 µM. It also gave a TGI [4] greater than 100 µM, a GI50 [5] of 7.3 µM and a TGI [5] greater than 100 µM. The GI50 [6] was greater than 100 µM, the TGI [6] was greater than 100 µM and the GI50 [7] was greater than 100 µM. The TGI [7] was greater than 100 µM, the GI50 [8] was 3.47 µM and the TGI [8] was greater than 100 µM.

With `COc1ccc(/C(=C\C=C(C#N)C#N)Sc2nc3ccccc3s2)cc1` the GI50 [1] was 3.69 µM, the TGI [1] was 12.6 µM and the GI50 [3] was 1.58 µM. For the same molecule, the TGI [3] was greater than 50 µM, the GI50 [10] was 9.02 µM and the TGI [10] was 16.9 µM. For the same molecule, the GI50 [4] was 15.5 µM, the TGI [4] was greater than 50 µM and the GI50 [5] was 1.77 µM. It also gave a TGI [5] greater than 50 µM, a GI50 [6] of 7.65 µM and a TGI [6] of 15.1 µM. It also gave a GI50 [7] of 7.06 µM, a TGI [7] of 32.8 µM and a GI50 [8] of 11.7 µM. It also gave a TGI [8] greater than 50 µM, a GI50 [9] of 2.52 µM and a TGI [9] of 9.08 µM.

In the case of `CC12CCC3c4ccc(O)cc4CCC3C1C/C(=N\O)C2O` (stereo not given), the TGI [1] is reported as greater than 100 µM, the TGI [2] is reported as greater than 100 µM and the TGI [3] is reported as greater than 100 µM. It also gave a TGI [4] greater than 100 µM, a TGI [5] greater than 100 µM and a TGI [6] greater than 100 µM. It also gave a TGI [7] greater than 100 µM, a TGI [8] greater than 100 µM and a TGI [9] greater than 100 µM.

Molecule `COC12OCCN(C)C1=CC(=O)C1=NNC(C)C12` (stereo not given) has a TGI [2] greater than 100 µM, a TGI [3] greater than 100 µM and a TGI [10] greater than 100 µM. For the same molecule, the TGI [4] was greater than 100 µM, the TGI [5] was greater than 100 µM and the TGI [7] was greater than 100 µM. For the same molecule, the TGI [8] was greater than 100 µM and the TGI [9] was greater than 100 µM.

Work on `C=COC(=O)N[C@H]1CCc2cc(OC)c(OC)c(OC)c2-c2ccc(SC)c(=O)cc21` yielded a TGI [2] of less than 0.01 µM, a TGI [3] greater than 31.6 µM and a TGI [10] of 85.6 µM. For the same molecule, the TGI [4] was 72.7 µM, the TGI [5] was greater than 100 µM and the TGI [6] was greater than 75 µM. The TGI [7] was 54.7 µM, the TGI [8] was 0.991 µM and the TGI [9] was 14.7 µM.

Work on `C[C@]12CCC(=O)C=C1CC[C@@H]1C2CC[C@]2(C)Nc3[nH]ncc3CC12` (stereo not given in full) yielded a TGI [2] greater than 100 µM, a TGI [3] greater than 100 µM and a TGI [10] greater than 100 µM. The TGI [4] was greater than 100 µM, the TGI [5] was greater than 100 µM and the TGI [6] was greater than 100 µM. The TGI [8] was greater than 100 µM and the TGI [9] was greater than 100 µM.

`[N-]=[N+]=N/C1=C/CCCCC(=O)C1` showed a TGI [2] greater than 100 µM, a TGI [3] greater than 100 µM and a TGI [10] greater than 100 µM. It also gave a TGI [4] greater than 100 µM, a TGI [5] greater than 100 µM and a TGI [6] greater than 100 µM. It also gave a TGI [7] greater than 100 µM, a TGI [8] greater than 100 µM and a TGI [9] greater than 100 µM.

`Cn1cc(-c2csc(-c3c[nH]c4ccc(Br)cc34)n2)c2cnccc21` gave a GI50 [2] of 2.11 µM, a TGI [2] of 7.91 µM and a GI50 [3] of 0.345 µM. It also gave a TGI [3] of 1.28 µM, a GI50 [4] of 2.81 µM and a TGI [4] of 11.5 µM. The GI50 [5] was 1.81 µM, the TGI [5] was 3.46 µM and the GI50 [7] was 1.75 µM. The TGI [7] was 3.35 µM, the GI50 [8] was 1.92 µM and the TGI [8] was 3.74 µM. It also gave a GI50 [9] of 1.87 µM and a TGI [9] of 3.61 µM.
